{
  "source": "BindingDB's records for doi:10.1016/j.ejmech.2013.06.048",
  "about": "(University of Siena, 2013)",
  "data": [
    {"test": "Inhibition of estrogen receptor alpha-mediated human MCF7 cell growth inhibition", "units": {"IC50": "µM"}, "values": [
      {"smiles": "COc1cc(C(=O)CCc2cc3c(cc2OC)CC[C@@H]2[C@@H]3CC[C@]3(C)[C@@H](O)CC[C@@H]23)ccc1O", "IC50": 64.9},
      {"smiles": "COc1cc2c(cc1C=O)[C@H]1CC[C@]3(C)[C@@H](OC(C)=O)CC[C@H]3[C@@H]1CC2", "IC50": 64.9},
      {"smiles": "COc1ccc2c(c1)CC[C@@H]1[C@@H]2CC[C@]2(C)[C@@H](OC(C)=O)CC[C@@H]12", "IC50": 64.9}
    ]}
  ]
}
